ChEMBL document CHEMBL5705884, “Breaching the DNA damage checkpoint via PF-00477736, a novel small-molecule inhibitor of checkpoint kinase 1” (Mol Cancer Ther, 2008)
Calls of active or inactive are those of the source. The rule behind the calls is not given here.

Tests used:
HT-29 [1] = assay: Inhibition of camptothecin induced DNA damage in human HT-29 cells assessed as increase in mitotic index by measuring histone H3 phosphorylation at S10 residue at 0.001 to 1 uM measured after 16 hrs presence of nocodazole by dot blot assay; type: functional, cell-based; conditions: HT-29, 16 h
MDA-MB-231 = assay: Potentiation factor, ratio of IC50 for human MDA-MB-231 cells to IC50 for human MDA-MB-231 cells in presence of doxorubicin; type: functional
HT-29 [2] = assay: Potentiation factor, ratio of IC50 for human HT-29 cells to IC50 for human HT-29 cells in presence of mytomicin-C; type: functional
[3] = AUC (0 to infinity) in nu/nu mouse at 40 mg/kg, ip by LCMS analysis; type: ADME, organism-based; conditions: in vivo
HT-29 [4] = assay: Inhibition of gemcitabine induced cell cycle arrest in human HT-29 cells assessed as decrease in CDK1 phosphorylation level at 360 nM by immunoblot analysis; type: functional, cell-based; conditions: time 2-24 hrs
COLO 205 [5] = assay: Antitumor activity against human COLO 205 cells xenografted in athymic nude mouse model assessed as tumor growth delay by measuring test to control tumor ratio at 30 mg/kg, ip administered twice daily in presence of gemcitabine (Gemcitabine alone = 3%); type: functional
COLO 205 [6] = assay: Antitumor activity against human COLO 205 cells xenografted in athymic nude mouse model assessed as gross log cell kill at 40 mg/kg, ip administered twice daily in presence of gemcitabine (Gemcitabine alone = 0.5%); type: functional
COLO 205 [7] = assay: Antitumor activity against human COLO 205 cells xenografted in athymic nude mouse model assessed as tumor growth delay by measuring test to control tumor ratio at 20 mg/kg, ip administered once daily in presence of gemcitabine (Gemcitabine alone= 8%); type: functional
COLO 205 [8] = assay: Antitumor activity against human COLO 205 cells xenografted in athymic nude mouse model assessed as tumor growth inhibition at 15 mg/kg, ip administered once daily in presence of gemcitabine (Gemcitabine alone = 40%); type: functional; conditions: read-out: TGI
COLO 205 [9] = assay: Antitumor activity against human COLO 205 cells xenografted in athymic nude mouse model assessed as potentiated tumor growth inhibition at 12 mg/kg, ip administered once daily in presence of gemcitabine relative to control; type: functional; conditions: read-out: TGI
HT-29 [10] = assay: Potentiation of camptothecin induced cytotoxicity in human HT-29 cells assessed as cell survival at 360 nM measured after 4 to 48 hrs by coulter counter method relative to camptothecin alone; type: functional; conditions: time 4-48 hrs, read-out: Activity
HT-29 [11] = assay: Induction of apoptosis in gemcitabine induced human HT-29 cells assessed as apoptotic cell death measured after 32 hrs by PI staining based flow cytometry analysis (reference value: 1.2%); type: functional
CA46 = assay: Inhibition of camptothecin induced DNA damage in p-53 mutated human CA46 cells assessed as G2 checkpoint abrogation at 0.001 to 1 uM measured after 16 hrs presence of nocodazole by dot blot assay; type: functional, cell-based; conditions: dose 0.001-1 µM
[12] = Clearance in Sprague-Dawley rat plasma at 4 mg/kg, iv administered as bolus dose by LCMS analysis; type: ADME, organism-based
COLO 205 [13] = assay: Antitumor activity against human COLO 205 cells xenografted in athymic nude mouse model assessed as tumor growth delay by measuring test to control tumor ratio at 7.5 mg/kg, ip administered once daily in presence of gemcitabine (Gemcitabine alone = 3%); type: functional
HT-29 [14] = assay: Induction of apoptosis in gemcitabine induced human HT-29 cells assessed as apoptotic cell death measured after 10 hrs by PI staining based flow cytometry analysis (reference value: 0.6%); type: functional
HT-29 [15] = assay: Cytotoxicity in human HT-29 cells assessed as cell survival at 540 nM measured after 4 to 48 hrs by coulter counter method relative to control; type: functional; conditions: time 4-48 hrs, read-out: Activity
HT-29 [16] = assay: Cytotoxicity in human HT-29 cells assessed as cell survival at 360 nM measured after 4 to 48 hrs by coulter counter method relative to control; type: functional; conditions: time 4-48 hrs, read-out: Activity
K562 = assay: Potentiation factor, ratio of IC50 for human K562 cells to IC50 for human K562 cells in presence of doxorubicin; type: functional
HT-29 [17] = assay: Inhibition of gemcitabine induced cell cycle arrest in human HT-29 cells assessed as increase in G2-M cell population pretreated with gemcitabine followed by compound treatment and measured after 10 to 48 hrs by flow cytometry analysis; type: functional, cell-based; conditions: time 10-48 hrs
COLO 205 [18] = assay: Antitumor activity against human COLO 205 cells xenografted in athymic nude mouse model assessed as tumor growth inhibition at 7.5 mg/kg, ip administered once daily in presence of gemcitabine (Gemcitabine alone = 40%); type: functional; conditions: read-out: TGI
COLO 205 [19] = assay: Antiproliferative activity against human COLO 205 cells deficit of p53 expression assessed as inhibition of cell growth measured after 96 hrs by MTT assay; type: functional, cell-based; conditions: COLO 205, 96 h
[20] = target: Vascular endothelial growth factor receptor 2 (Homo sapiens, UniProt P35968); assay: Binding affinity to VEGFR2 (unknown origin) assessed as inhibition constant
Chain of Vascular endothelial growth factor receptor 2 (P35968 whole entry): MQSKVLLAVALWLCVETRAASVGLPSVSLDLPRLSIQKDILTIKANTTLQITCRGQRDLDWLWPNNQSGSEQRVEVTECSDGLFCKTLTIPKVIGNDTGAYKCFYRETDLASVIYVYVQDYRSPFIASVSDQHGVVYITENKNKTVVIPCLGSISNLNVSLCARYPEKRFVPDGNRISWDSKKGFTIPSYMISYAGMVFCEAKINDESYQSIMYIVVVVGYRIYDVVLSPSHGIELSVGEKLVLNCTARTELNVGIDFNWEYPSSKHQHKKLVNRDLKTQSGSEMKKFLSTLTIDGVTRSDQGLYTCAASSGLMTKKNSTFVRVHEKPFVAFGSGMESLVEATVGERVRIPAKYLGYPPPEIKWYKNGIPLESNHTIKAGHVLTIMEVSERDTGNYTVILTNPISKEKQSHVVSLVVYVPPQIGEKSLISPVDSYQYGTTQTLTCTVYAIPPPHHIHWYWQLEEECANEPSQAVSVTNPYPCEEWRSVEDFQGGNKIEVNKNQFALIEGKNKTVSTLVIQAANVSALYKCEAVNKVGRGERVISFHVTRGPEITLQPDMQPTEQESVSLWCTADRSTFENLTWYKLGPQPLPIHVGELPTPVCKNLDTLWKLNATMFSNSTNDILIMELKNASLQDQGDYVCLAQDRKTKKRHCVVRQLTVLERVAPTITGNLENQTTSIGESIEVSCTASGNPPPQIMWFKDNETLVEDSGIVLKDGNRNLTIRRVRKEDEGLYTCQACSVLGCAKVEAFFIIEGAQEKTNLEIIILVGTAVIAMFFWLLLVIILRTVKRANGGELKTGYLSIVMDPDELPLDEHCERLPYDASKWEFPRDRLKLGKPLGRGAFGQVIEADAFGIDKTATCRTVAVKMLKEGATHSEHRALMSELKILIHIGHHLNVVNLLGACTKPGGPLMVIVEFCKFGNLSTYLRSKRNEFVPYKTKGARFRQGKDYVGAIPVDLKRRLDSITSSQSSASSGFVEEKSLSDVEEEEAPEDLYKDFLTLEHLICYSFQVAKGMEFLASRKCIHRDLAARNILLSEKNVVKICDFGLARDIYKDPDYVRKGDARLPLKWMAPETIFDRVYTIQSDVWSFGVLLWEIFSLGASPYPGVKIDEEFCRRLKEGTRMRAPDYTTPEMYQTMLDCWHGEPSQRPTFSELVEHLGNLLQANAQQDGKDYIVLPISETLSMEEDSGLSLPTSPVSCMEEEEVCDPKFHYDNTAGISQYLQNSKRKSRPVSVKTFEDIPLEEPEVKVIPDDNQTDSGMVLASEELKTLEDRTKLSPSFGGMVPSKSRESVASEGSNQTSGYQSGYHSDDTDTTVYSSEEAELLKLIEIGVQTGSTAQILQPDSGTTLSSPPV

[21] = target: T1, Receptor-type tyrosine-protein kinase FLT3 (Homo sapiens, UniProt P36888); assay: Inhibition of FLT3 (unknown origin)
T1 sequence (P36888 whole entry): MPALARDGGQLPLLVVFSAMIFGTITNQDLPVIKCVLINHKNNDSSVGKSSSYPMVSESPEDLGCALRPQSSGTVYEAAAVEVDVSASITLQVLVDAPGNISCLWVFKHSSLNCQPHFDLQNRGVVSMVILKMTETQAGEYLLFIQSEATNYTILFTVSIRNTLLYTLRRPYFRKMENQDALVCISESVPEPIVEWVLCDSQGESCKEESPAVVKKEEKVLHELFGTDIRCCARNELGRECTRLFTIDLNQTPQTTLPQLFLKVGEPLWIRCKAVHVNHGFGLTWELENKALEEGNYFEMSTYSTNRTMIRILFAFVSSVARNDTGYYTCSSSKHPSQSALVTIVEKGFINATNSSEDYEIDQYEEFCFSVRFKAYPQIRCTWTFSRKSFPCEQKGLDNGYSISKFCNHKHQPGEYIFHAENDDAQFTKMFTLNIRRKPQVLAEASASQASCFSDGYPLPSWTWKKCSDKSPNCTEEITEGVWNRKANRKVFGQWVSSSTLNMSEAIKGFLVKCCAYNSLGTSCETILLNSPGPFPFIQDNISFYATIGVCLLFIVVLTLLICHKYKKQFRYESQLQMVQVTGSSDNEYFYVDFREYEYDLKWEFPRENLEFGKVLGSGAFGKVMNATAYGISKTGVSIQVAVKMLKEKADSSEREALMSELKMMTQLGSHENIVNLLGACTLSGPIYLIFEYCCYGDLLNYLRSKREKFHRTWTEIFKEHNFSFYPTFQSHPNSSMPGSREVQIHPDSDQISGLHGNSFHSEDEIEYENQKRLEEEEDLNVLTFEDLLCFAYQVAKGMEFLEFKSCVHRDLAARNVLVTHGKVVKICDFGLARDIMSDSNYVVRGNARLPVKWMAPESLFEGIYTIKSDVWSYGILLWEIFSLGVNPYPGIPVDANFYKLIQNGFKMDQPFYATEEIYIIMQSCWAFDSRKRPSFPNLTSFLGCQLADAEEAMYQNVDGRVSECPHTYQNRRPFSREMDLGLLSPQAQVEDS

## Cn1cc(-c2[nH]c3cc(NC(=O)[C@H](N)C4CCCCC4)cc4c3c2C=NNC4=O)cn1
HT-29 [1]
  EC50: 42 nM
MDA-MB-231
  PF50: 2.25
HT-29 [2]
  PF50: 3.7
[3]
  AUC(0-inf): 25800 ng·h/mL
HT-29 [4]
  inhibition: Dose-Dependent Effect
COLO 205 [5]
  T/C: 9.75
COLO 205 [6]
  LCK: 1.25
COLO 205 [7]
  T/C: 12
COLO 205 [8]
  inhibition in vivo at 15 mg/kg: 67%
COLO 205 [9]
  inhibition in vivo at 12 mg/kg: 23%
HT-29 [10]
  viability at 0.36 µM: 84%
HT-29 [11]
  Activity: 18.1%
CA46
  inhibition: Active
[12]
  clearance: 11.8 mL/min/kg
COLO 205 [13]
  T/C: 5.75
HT-29 [14]
  Activity: 0.1%
HT-29 [15]
  viability at 0.54 µM: 83%
HT-29 [16]
  viability at 0.36 µM: 93%
K562
  PF50: 1.1
HT-29 [17]
  inhibition: Active
COLO 205 [18]
  inhibition in vivo at 7.5 mg/kg: 54%
COLO 205 [19]
  IC50: 1300 nM
[20]
  Ki: 16 nM
[21]
  IC50: 51 nM
